Data taken from paper PMC10762035, “Molecular basis of human trace amine-associated receptor 1 activation” (Nature Communications, 2024).
Positions count from the first letter of the chain named. Where “and” joins values, the source holds several entries; their conditions need not be identical. Identical values can stand only once.

Tests used:
Type in all cases: cell-based
hTA1 C88/178S = target: T1, hTA1 C88/178S (Homo sapiens, UniProt Q96RJ0, C178S/C88S); experiment: GloSensor cAMP accumulation assay, C88S/C178S double mutant; settings: for Normalized Luminescence Counts (N=2): log[Compound], single replicate values
T1 construct: expressed in transfected cells; host or cells: HEK293T
T1 sequence (Q96RJ0 1-339 C88S/C178S): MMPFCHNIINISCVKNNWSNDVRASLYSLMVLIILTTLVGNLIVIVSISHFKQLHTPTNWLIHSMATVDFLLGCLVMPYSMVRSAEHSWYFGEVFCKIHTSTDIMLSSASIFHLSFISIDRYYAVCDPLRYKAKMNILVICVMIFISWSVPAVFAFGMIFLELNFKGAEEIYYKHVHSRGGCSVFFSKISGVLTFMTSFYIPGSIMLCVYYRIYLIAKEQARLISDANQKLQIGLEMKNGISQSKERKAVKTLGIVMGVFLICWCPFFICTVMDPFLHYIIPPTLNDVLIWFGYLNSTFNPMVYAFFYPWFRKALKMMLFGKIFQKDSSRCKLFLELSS

hTA1 W264F = target: T2, hTA1 W264F (Homo sapiens, UniProt Q96RJ0, W264F); experiment: GloSensor cAMP accumulation assay, W264F mutant;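 further: cells transiently transfected with receptor plus GloSensor, luminescence read 30 min after agonist addition at room temperature, concentration-response curves fitted by log(agonist) vs response regression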
T2 construct: expressed in transfected cells; host or cells: HEK293T
T2 sequence (Q96RJ0 1-339 W264F): T1 sequence (Q96RJ0 1-339 C88S/C178S) with S88C, S178C, W264F

hTA1 V184P = target: T3, hTA1 V184P (Homo sapiens, UniProt Q96RJ0, V184P); experiment: GloSensor cAMP accumulation assay, V184P mutant; settings: for cAMP accumulation response, single replicate values (source data, Supplementary Figure 5): hTA1 V184P (N=2), log[Compound]
T3 construct: expressed in transfected cells; host or cells: HEK293T
T3 sequence (Q96RJ0 1-339 V184P): T1 sequence (Q96RJ0 1-339 C88S/C178S) with S88C, S178C, V184P

hTA1 T271N = target: T4, hTA1 T271N (Homo sapiens, UniProt Q96RJ0, T271N); experiment: GloSensor cAMP accumulation assay, T271N mutant
T4 construct: expressed in transfected cells; host or cells: HEK293T
T4 sequence (Q96RJ0 1-339 T271N): T1 sequence (Q96RJ0 1-339 C88S/C178S) with S88C, S178C, T271N

[1] = C88S, C178S, each row is one independent experiment, 3 replicates

In the case of `Cc1c(F)cccc1[C@H]1COC(N)=N1` [Ro5263397], the “Span ± SEM (Emax normalized to β-PEA)” value (hTA1 C88/178S; C88/178S, n=2) is reported as 98.55 ± 7.35, the “pEC50 ± SEM” value (hTA1 C88/178S; C88/178S, n=2) is reported as 8.59 ± 0.09 and the EC50 (hTA1 C88/178S; C88/178S, n=2, read-out: EC50) is reported as 2.55 nM. The “pEC50 values, Mean” value (hTA1 C88/178S; [1]) was 8.403 and 8.782, the “ΔEmax values (each mutant value - WT average), Mean” value (hTA1 C88/178S; [1]) was 4.495 and 19.1933 and the “ΔpEC50 values (each mutant value - WT average), Mean” value (hTA1 C88/178S; [1]) was -0.428 and -0.04873. For the same compound, the “Normalized Luminescence Counts (N=2)” value (hTA1 C88/178S; C88S, C178S, M = -5) was 100.242 and 99.2245 and 97.2457 and 143.648 and 172.345 and 97.883, the “Normalized Luminescence Counts (N=2)” value (hTA1 C88/178S; C88S, C178S, M = -5.522) was 90.9136 and 85.0903 and 89.8394 and 123.862 and 148.33 and 92.2945 and the “Normalized Luminescence Counts (N=2)” value (hTA1 C88/178S; C88S, C178S, M = -6) was 90.1221 and 88.8217 and 95.4931 and 103.622 and 111.174 and 99.9975. The “Normalized Luminescence Counts (N=2)” value (hTA1 C88/178S; C88S, C178S, M = -6.522) was 99.5072 and 94.7581 and 94.2493 and 122.049 and 117.367 and 101.508, the “Normalized Luminescence Counts (N=2)” value (hTA1 C88/178S; C88S, C178S, M = -7) was 91.3094 and 97.4719 and 93.062 and 116.159 and 110.872 and 102.263 and the “Normalized Luminescence Counts (N=2)” value (hTA1 C88/178S; C88S, C178S, M = -7.522) was 83.1115 and 82.2069 and 77.6274 and 88.2165 and 117.82 and 93.3518. For the same compound, the “Normalized Luminescence Counts (N=2)” value (hTA1 C88/178S; C88S, C178S, M = -8) was 58.8572 and 57.8961 and 57.8396 and 93.8049 and 106.945 and 88.8206, the “Normalized Luminescence Counts (N=2)” value (hTA1 C88/178S; C88S, C178S, M = -8.522) was 53.4862 and 36.4686 and 47.8325 and 84.7426 and 92.7477 and 67.222 and the “Normalized Luminescence Counts (N=2)” value (hTA1 C88/178S; C88S, C178S, M = -9) was 25.2178 and 28.61 and 25.7832 and 45.3213 and 51.816 and 46.9828. The “Normalized Luminescence Counts (N=2)” value (hTA1 C88/178S; C88S, C178S, M = -9.522) was 8.822 and 11.8186 and 9.84 and 21.1551 and 21.4571 and 31.5768, the “Normalized Luminescence Counts (N=2)” value (hTA1 C88/178S; C88S, C178S, M = -10) was 5.826 and 5.4299 (2×) and 35.5038 (2×) and 37.3163 and the “Normalized Luminescence Counts (N=2)” value (hTA1 C88/178S; C88S, C178S, M = -10.522) was 1.755 and 2.038 and 3.395 and 3.6345 and 2.124 and 3.483. For the same compound, the “Normalized Luminescence Counts (N=2)” value (hTA1 C88/178S; C88S, C178S, M = -11) was 2.49 and 1.529 and 1.585 and 16.4728 and 32.9361 and 27.0456, the “Normalized Luminescence Counts (N=2)” value (hTA1 C88/178S; C88S, C178S, M = -11.522) was 0.5677 and 1.529 and 0.7373 and 0.9158 and 1.369 and 1.973 and the “Normalized Luminescence Counts (N=2)” value (hTA1 C88/178S; C88S, C178S, M = -12) was 0.7939 and 1.472 and 1.1331 and 4.692 and 7.713 and 6.504. The “Normalized Luminescence Counts (N=2)” value (hTA1 C88/178S; C88S, C178S, M = -12.522) was 1.698 and 0.6243 and 0.7373 and -0.4436 and 0.7648 and -1.803, the “Emax values, Mean” value (hTA1 C88/178S; C88S, C178S, normalized (β-PEA = 100), each row is one independent experiment, 3 replicates) was 91.1984 and 105.897 and the “ΔEmax values (each mutant value - WT average)” value (hTA1 W264F; W246F mutant (so in the source) minus WT average) was -34.1318. For the same compound, the “pEC50 values, Mean” value (hTA1 W264F; W246F mutant (so in the source), each line an independent experiment, 3 replicates) was 5.605 and 5.96, the “Emax values, Mean” value (hTA1 W264F; W246F mutant (so in the source), β-PEA = 100, each line an independent experiment, 3 replicates) was 52.5716 and 62.1592 and the “decrease in potency vs wild type” value (hTA1 W264F; W264F) was “more than 1000 fold”. The “Span ± SEM (Emax normalized to β-PEA)” value (hTA1 W264F; W264F, n=2) was 57.37 ± 4.79, the “pEC50 ± SEM” value (hTA1 W264F; W264F, n=2) was 5.78 ± 0.06 and the “Span ± SEM (Emax normalized to β-PEA)” value (hTA1 V184P; V184P, n=2) was 67.49 ± 4.18. The “pEC50 ± SEM” value (hTA1 V184P; V184P, n=2) was 8.72 ± 0.1, the EC50 (hTA1 V184P; V184P, n=2, read-out: EC50) was 1.89 nM and the “cAMP accumulation response, single replicate values (source data, Supplementary Figure 5)” value (“cAMP accumulation response” below) (hTA1 V184P; M = -5) was 75.9826 and 54.4514 and 68.5146 and 68.2232 and 103.41 and 63.2018. The “cAMP accumulation response” value (hTA1 V184P; M = -5.522) was 60.8526 and 56.6821 and 51.6388 and 54.9916 and 88.8585 and 75.7736, the “cAMP accumulation response” value (hTA1 V184P; M = -6) was 62.1134 and 62.7923 and 57.749 and 52.2793 and 90.2146 and 61.0026 and the “cAMP accumulation response” value (hTA1 V184P; M = -6.522) was 55.2273 and 58.8159 and 63.0833 and 59.17 and 90.5079 and 61.9556. The “cAMP accumulation response” value (hTA1 V184P; M = -7) was 76.2736 and 57.458 and 63.8592 and 78.4492 and 93.4034 and 75.9935, the “cAMP accumulation response” value (hTA1 V184P; M = -7.522) was 63.0833 and 60.2707 and 53.2876 and 78.6325 and 73.831 and 68.1499 and the “cAMP accumulation response” value (hTA1 V184P; M = -8) was 45.7226 and 42.0371 and 33.6962 and 79.732 and 85.8896 and 81.3081. The “cAMP accumulation response” value (hTA1 V184P; M = -8.522) was 24.6764 and 22.5426 and 25.9372 and 54.0753 and 61.6257 and 60.123, the “cAMP accumulation response” value (hTA1 V184P; M = -9) was 15.8505 and 15.9475 and 14.9776 and 42.9696 and 48.944 and 40.6972 and the “cAMP accumulation response” value (hTA1 V184P; M = -9.522) was 5.57 and 4.794 and 3.436 and 18.8157 and 20.0985 and 19.2188. The “cAMP accumulation response” value (hTA1 V184P; M = -10) was -0.05538 and 0.9145 and 0.6235 and 8.626 and 10.7888 and 9.213, the “cAMP accumulation response” value (hTA1 V184P; M = -10.522) was -0.8313 and -0.6373 and -1.025 and 2.3587 and 2.835 and 2.469 and the “cAMP accumulation response” value (hTA1 V184P; M = -11) was -0.6373 and -0.7343 and -1.316 and 1.442 and 2.102 and 1.039. For the same compound, the “cAMP accumulation response” value (hTA1 V184P; M = -11.522) was -1.025 and -1.607 and -1.51 and 0.1962 and 0.9659 and -0.5735, the “cAMP accumulation response” value (hTA1 V184P; M = -12) was -0.9283 and -1.122 and -1.4132 and 19.5854 and 20.7216 (2×) and the “cAMP accumulation response” value (hTA1 V184P; M = -12.522) was -1.316 and -1.219 and -0.9283 and 4.704 and 5.621 and 6.281. The “pEC50 values, Mean” value (hTA1 V184P; hTA1 V184P mutant, Figure 3B source data, each grid row a separate experiment, 3 replicates) was 8.393 and 9.05, the “Emax values, Mean” value (hTA1 V184P; hTA1 V184P mutant, β-PEA set to 100, each grid row a separate experiment, 3 replicates) was 63.3156 and 71.6719 and the “ΔpEC50 values (each mutant value - WT average), Mean” value (hTA1 T271N; T271N mutant minus WT average, Figure 5B) was -0.511 and -0.5494. The “pEC50 values, Mean” value (hTA1 T271N; T271N mutant, Figure 5B, each row one independent experiment (3 replicates)) was 8.32 and 8.282, the “Emax values, Mean” value (hTA1 T271N; T271N mutant, Figure 5B, β-PEA = 100, each row one independent experiment (3 replicates)) was 116.619 and 99.549 and the “Span ± SEM (Emax normalized to β-PEA)” value (hTA1 T271N; T271N, n=2) was 108.08 ± 8.54. The “pEC50 ± SEM” value (hTA1 T271N; T271N, n=2) was 8.3 ± 0.07 and the EC50 (hTA1 T271N; T271N, n=2, read-out: EC50) was 5 nM.
